Assay results from article PMC4476799, “Englerin A Agonizes the TRPC4/C5 Cation Channels to Inhibit Tumor Cell Line Proliferation” (PLoS ONE, 2015).
pEC50, pIC50: −log10 of the molar value. Where two headings read alike, the source gives them in different places.

System: cancer cell lines from the cancer cell line encyclopedia (CCLE)
Experiment: Cell line profiling (CLiP) proliferation experiment
Type: cell-based
Parameters: key to Compound Activity (1-inactive;2-active): 1-inactive; 2-active; ACTIVITY_AREA: scale not given here; AMAX: unit not given here
Details: for pIC50: read-out: Crossing Point; for pEC50: read-out: Inflection Point
Procedure: Compound profiling experiment and data analysis was performed as previously described. Data was imported and plotted using the Tibco Spotfire DXP application. Lines were categorized as sensitive, intermediate and refractory as follows: Amax<-40 & Inflection Point <2 ~ Sensitive, Amax>-20 & Inflection Point >10 ~ Refractory, all else were called Intermediate. Cancer Cell line HG-U133 Plus 2 data was processed and normalized as described. […] Five sets of refractory cell lines were generated from the pool of refractory cell lines trying to match the lineage composition of the set of sensitive cell lines. The limma package was used as previously described to perform the statistical comparison.

[1] = cell line GA-10, haematopoietic_and_lymphoid_tissue
[2] = cell line GAMG, central_nervous_system
[3] = cell line GI-1 (central_nervous_system, gliosarcoma)
[4] = cell line GI-1, central_nervous_system
[5] = cell line GMS-10, central_nervous_system
[6] = cell line GOS-3 (central_nervous_system, astrocytoma)
[7] = cell line GOS-3, central_nervous_system
[8] = cell line GP2d, large_intestine
[9] = cell line GRANTA-519, haematopoietic_and_lymphoid_tissue
[10] = cell line H4, central_nervous_system
[11] = cell line HARA (lung, squamous_cell_carcinoma)
[12] = cell line HH, haematopoietic_and_lymphoid_tissue
[13] = cell line Hs 611.T, haematopoietic_and_lymphoid_tissue
[14] = cell line MCAS (ovary, mucinous_carcinoma)
[15] = cell line MOG-G-UVW (central_nervous_system)
[16] = cell line NB-1 (autonomic_ganglia)
[17] = cell line NB-4 (haematopoietic_and_lymphoid_tissue)
[18] = cell line SNU-119, ovary, adenocarcinoma
[19] = cell line SNU-626 (central_nervous_system, astrocytoma_Grade_IV)
[20] = cell line SNU-1079, biliary_tract

## CC(C)[C@@]12C[C@@H](O)[C@@](C)(O1)[C@@H]1CC[C@@H](C)[C@H]1[C@@H]2OC(=O)/C=C/c1ccccc1 [Englerin B]
[1]
  ACTIVITY_AREA: 28.18
  AMAX: 8.5
  RESPONSE: REFRACTORY
[2]
  ACTIVITY_AREA: 50.48
  AMAX: -45.21
  RESPONSE: INTERMEDIATE
Cell line GCIY, stomach
  ACTIVITY_AREA: 49.94
  AMAX: -70.92
  RESPONSE: INTERMEDIATE
Cell line GCT (soft_tissue, NS)
  Compound Activity (1-inactive;2-active): 1
Cell line GCT, soft_tissue
  ACTIVITY_AREA: 17.95
  AMAX: -52.9
  RESPONSE: INTERMEDIATE
  pIC50: 4.57
  pEC50: 4.78
[3]
  Compound Activity (1-inactive;2-active): 1
  pIC50: < 4.52
[4]
  ACTIVITY_AREA: 112.12
  AMAX: -25.87
  RESPONSE: INTERMEDIATE
  pIC50: < 4.52
[5]
  ACTIVITY_AREA: 21.47
  AMAX: -32.03
  RESPONSE: INTERMEDIATE
[6]
  Compound Activity (1-inactive;2-active): 1
  pIC50: < 4.52
[7]
  ACTIVITY_AREA: 26.28
  AMAX: -31.04
  RESPONSE: INTERMEDIATE
  pIC50: < 4.52
[8]
  ACTIVITY_AREA: 32.63
  AMAX: -48.04
  RESPONSE: INTERMEDIATE
Cell line GR-M, skin
  ACTIVITY_AREA: 48.68
  AMAX: -36.64
  RESPONSE: INTERMEDIATE
  pIC50: < 4.52
Cell line GR-M
  pIC50: < 4.52
[9]
  ACTIVITY_AREA: 14.82
  AMAX: 16.83
  RESPONSE: REFRACTORY
[10]
  ACTIVITY_AREA: 16.33
  AMAX: -3.42
  RESPONSE: REFRACTORY
  pIC50: < 4.52
Cell line H4
  pIC50: < 4.52
[11]
  Compound Activity (1-inactive;2-active): 1
  pIC50: 4.80
Cell line HARA, lung
  ACTIVITY_AREA: 73.57
  AMAX: -72.32
  RESPONSE: INTERMEDIATE
  pIC50: 4.80
Cell line HCC-15 (lung, squamous_cell_carcinoma)
  Compound Activity (1-inactive;2-active): 1
Cell line HCC-15, lung
  ACTIVITY_AREA: 57.49
  AMAX: -70.57
  RESPONSE: INTERMEDIATE
Cell line HCC-44 (lung, adenocarcinoma)
  Compound Activity (1-inactive;2-active): 1
Cell line HCC-44, lung
  RESPONSE: INTERMEDIATE
Cell line HCC-366, lung
  RESPONSE: REFRACTORY
Cell line HCC-1171 (lung, non_small_cell_carcinoma)
  Compound Activity (1-inactive;2-active): 1
Cell line HCC-1171, lung
  ACTIVITY_AREA: 53.16
  AMAX: -52.03
  RESPONSE: INTERMEDIATE
Cell line HEC-59, endometrium
  pIC50: 4.72
Cell line HEC-151, endometrium
  pIC50: 4.78
Cell line HEC-265, endometrium
  pIC50: 4.57
  pEC50: 4.57
Cell line HEL 92.1.7 (haematopoietic_and_lymphoid_tissue, acute_myeloid_leukaemia)
  Compound Activity (1-inactive;2-active): 1
[12]
  pIC50: 5.00
  pEC50: 5.02
Cell line HLC-1, lung
  pIC50: < 4.52
Cell line HLC-1
  pIC50: < 4.52
Cell line HLF, liver
  pIC50: < 4.52
  pEC50: 4.78
Cell line HLF
  pIC50: < 4.52
Cell line HMC-1-8, breast
  pIC50: 4.53
Cell line HPB-ALL (haematopoietic_and_lymphoid_tissue, acute_lymphoblastic_T_cell_leukaemia)
  Compound Activity (1-inactive;2-active): 1
Cell line HT, haematopoietic_and_lymphoid_tissue
  pIC50: < 4.52
Cell line HT
  pIC50: < 4.52
Cell line HTK-, haematopoietic_and_lymphoid_tissue
  pIC50: 4.54
Cell line Hs 571.T, ovary
  pIC50: 4.71
  pEC50: 4.71
[13]
  pIC50: 4.68
  pEC50: 4.68
Cell line Hs 729, soft_tissue
  pIC50: < 4.52
Cell line Hs 729
  pIC50: < 4.52
Cell line Hs 936.T, skin
  pIC50: < 4.52
  pEC50: 5.10
Cell line Hs 936.T
  pIC50: < 4.52
Cell line Hs 939.T, skin
  pIC50: < 4.52
Cell line Hs 939.T
  pIC50: < 4.52
Cell line Hs 940.T, skin
  pIC50: < 4.52
Cell line Hs 944.T, skin
  pIC50: 4.69
  pEC50: 4.77
Cell line HuG1-N, stomach
  pIC50: 4.96
Cell line J82
  pIC50: < 4.52
Cell line KLE
  pIC50: < 4.52
Cell line Loucy (haematopoietic_and_lymphoid_tissue, acute_lymphoblastic_T_cell_leukaemia)
  Compound Activity (1-inactive;2-active): 1
Cell line MC116 (haematopoietic_and_lymphoid_tissue, B_cell_lymphoma_unspecified)
  Compound Activity (1-inactive;2-active): 1
[14]
  Compound Activity (1-inactive;2-active): 1
  pIC50: < 4.52
Cell line MDA-MB-231 (breast, NS)
  Compound Activity (1-inactive;2-active): 1
Cell line MDA-MB-453 (breast, NS)
  Compound Activity (1-inactive;2-active): 1
Cell line MEC-1 (haematopoietic_and_lymphoid_tissue, chronic_lymphocytic_leukaemia-small_lymphocytic_lymphoma)
  Compound Activity (1-inactive;2-active): 1
Cell line MEL-HO (skin)
  pIC50: < 4.52
Cell line MEL-HO
  pIC50: < 4.52
Cell line MHH-NB-11 (autonomic_ganglia)
  pIC50: 4.57
Cell line MJ (haematopoietic_and_lymphoid_tissue)
  pIC50: 5.04
[15]
  pIC50: < 4.52
  pEC50: 4.99
Cell line MOG-G-UVW
  pIC50: < 4.52
Cell line MOLT-16 (haematopoietic_and_lymphoid_tissue, acute_lymphoblastic_T_cell_leukaemia)
  Compound Activity (1-inactive;2-active): 1
Cell line MONO-MAC-6 (haematopoietic_and_lymphoid_tissue, acute_myeloid_leukaemia)
  Compound Activity (1-inactive;2-active): 1
Cell line MOR/CPR (lung)
  pIC50: 4.55
  pEC50: 4.89
Cell line MOR/CPR
  pEC50: 4.89
Cell line MeWo (skin, NS)
  Compound Activity (1-inactive;2-active): 1
Cell line Mel285 (eye)
  pIC50: < 4.52
  pEC50: 4.86
Cell line Mel285
  pIC50: < 4.52
[16]
  pIC50: 4.65
  pEC50: 4.65
[17]
  pIC50: 4.73
  pEC50: 4.94
Cell line NCI-H1048 (lung, small_cell_carcinoma)
  Compound Activity (1-inactive;2-active): 1
Cell line NCI-H1299 (lung, non_small_cell_carcinoma)
  Compound Activity (1-inactive;2-active): 1
Cell line NCI-H1341 (lung)
  pIC50: 4.82
  pEC50: 4.82
Cell line NCI-H1355 (lung, adenocarcinoma)
  Compound Activity (1-inactive;2-active): 1
Cell line NCI-H1792 (lung, adenocarcinoma)
  Compound Activity (1-inactive;2-active): 1
Cell line NCI-H2073 (lung, adenocarcinoma)
  Compound Activity (1-inactive;2-active): 1
Cell line NCI-H2106
  pIC50: < 4.52
Cell line NCI-H2330
  pIC50: < 4.52
Cell line OC 316
  pIC50: < 4.52
Cell line OMM2.3
  pIC50: < 4.52
  pEC50: 4.87
Cell line OMM2.5
  pIC50: < 4.52
Cell line OV7
  pIC50: < 4.52
Cell line OVISE
  pIC50: 4.75
Cell line PC-3
  pIC50: 4.59
Cell line PE/CA-PJ41 (clone D2)
  pIC50: 4.59
Cell line PEER
  pIC50: 4.87
Cell line RCC10RGB
  pIC50: < 4.52
Cell line RCH-ACV
  pIC50: 4.81
  pEC50: 4.92
Cell line RD
  pIC50: < 4.52
Cell line RERF-LC-AI
  pIC50: < 4.52
  pEC50: 4.75
Cell line RI-1
  pIC50: 5.00
  pEC50: 5.00
Cell line RKN
  pIC50: < 4.52
Cell line RKO
  pIC50: 4.83
  pEC50: 4.88
Cell line RL
  pIC50: 4.90
  pEC50: 4.93
Cell line RMUG-S
  pIC50: < 4.52
Cell line Reh
  pIC50: 4.67
  pEC50: 4.67
Cell line SEM, haematopoietic_and_lymphoid_tissue, acute_lymphoblastic_B_cell_leukaemia
  pIC50: 4.85
Cell line SF-295 (central_nervous_system, astrocytoma_Grade_IV)
  Compound Activity (1-inactive;2-active): 1
Cell line SH-4, skin
  pIC50: < 4.52
Cell line SK-N-SH (autonomic_ganglia, NS)
  Compound Activity (1-inactive;2-active): 1
Cell line SNG-M, endometrium, adenocarcinoma
  pIC50: < 4.52
[18]
  pIC50: < 4.52
  pEC50: 4.57
Cell line SNU-475 (liver, hepatocellular_carcinoma)
  Compound Activity (1-inactive;2-active): 1
[19]
  Compound Activity (1-inactive;2-active): 1
  pIC50: < 4.52
Cell line SNU-626, central_nervous_system, astrocytoma_Grade_IV
  pIC50: < 4.52
Cell line SNU-738, central_nervous_system, oligodendroglioma
  pIC50: < 4.52
[20]
  pIC50: 4.59
  pEC50: 4.59
Cell line SW48 (large_intestine, adenocarcinoma)
  Compound Activity (1-inactive;2-active): 1
Cell line SW 1783 (central_nervous_system, astrocytoma_Grade_III)
  Compound Activity (1-inactive;2-active): 1
Cell line THP-1 (haematopoietic_and_lymphoid_tissue, acute_myeloid_leukaemia)
  Compound Activity (1-inactive;2-active): 1
compound-level call
  Compound Activity (1-inactive;2-active): 1
compound-level call printed on every cell line row
  Compound Activity (1-inactive;2-active): 1
compound-level call, the same on every cell line's row
  Compound Activity (1-inactive;2-active): 1
compound-level flag
  Compound Activity (1-inactive;2-active): 1
compound-level flag repeated on every cell line row
  Compound Activity (1-inactive;2-active): 1
compound-level flag, printed on every cell line row
  Compound Activity (1-inactive;2-active): 1
Flag of the compound
  Compound Activity (1-inactive;2-active): 1
Overall call per compound
  Compound Activity (1-inactive;2-active): 1
Overall class of the compound
  Compound Activity (1-inactive;2-active): 1
Printed on every cell line row, same value for the compound throughout
  Compound Activity (1-inactive;2-active): 1
